In US4959377A, “Phenoxypyridinamine compounds which are use as a dermatological composition” (Hoechst-Roussel Pharmaceuticals Inc., priority 1989, dated 1990):
Structures can show the parent of a compound that is named as a salt.

What was measured:
[1] = test system: naja naja (snake venom) phospholipase A2 -induced paw edema; experiment: Phospholipase A2-induced Paw Edema (PIPE); format: in vivo, male Wistar rats
Description: Phospholipase A2 -induced Paw Edema (PIPE)
The ability of compounds to prevent naja naja (snake venom) phospholipase A2 -induced paw edema in male Wistar rats (100-125 g) was measured. PLA2 (3 units/paw) alone or with 0.1M of the test compound was injected in the subplantar region of the rat left hindpaw. Immediately subsequent to the injection and at two hours post administration the paw was immersed in a mercury bath, and paw displacement was measured on a recorder via a transducer. […] See Giessler, A. J. et al., Agents and Actions, Vol. 10, Trends in Inflammation Research (1981), p. 195.

[2] = test system: ear edema induced by topical application of TPA (phorbol 12-myristate acetate); experiment: TPA-Induced Ear Edema (TPAEE); format: in vivo, Female Swiss Webster mice; conditions: for TPAEE: 10 μg/ear topical, TPA 10 μg/ear, five hours
Description: TPA-Induced Ear Edema (TPAEE)
The purpose of this assay was to determine the ability of a topically-applied compound to prevent ear edema induced by topical application of TPA (phorbol 12-myristate acetate). Female Swiss Webster mice topically received TPA (10 μg/ear) on the right ear and vehicle on the left ear. The test compound (10 μg/ear) was applied to both ears. After five hours, the animals were sacrificed and an ear punch (4 mm) was taken from each ear. The difference in right and left ear punch weights for each animal was determined to assess activity. […] See Young, J. M. et al., J. Invest. Dermatol., 80 (1983), pp. 48-52.

[3] = molecular target: T1, porcine pancreatic PLA2 (Sus scrofa, UniProt P00592); experiment: In Vitro Phospholipase A2 Assay (PLA2); format: biochemical; conditions: 0.01 M test compound, 37° C., pH 8.0; read-out: PLA2 (difference vs. control)
T1 construct: from tissue; host or cells: porcine pancreas
Description: In Vitro Phospholipase A2 Assay (PLA2)
The ability of a compound to modulate PLA2 activity (cleavage of ^14 C-dipalmitoyl phosphotidylcholine at the 2-position to ^14 C-palmitic acid) was quantitated in this assay. The reaction mixture contained Tris buffer (25 mM), pH 8.0, calcium chloride (2.0 mM), bovine serum albumin (0.5 mg), dipalmitoyl phosphotidylcholine (8×10^-5M), (^14 C-palmitoyl)dipalmitoyl phosphotidylcholine (6×10^3cpm), porcine pancreatic PLA2 (3.2 units) and the test compound. The reaction was run at 37° C. in a shaking incubator. The reaction was quenched and an internal standard was added in order to determine sample recovery. The samples were loaded onto C18 columns, eluted with ethanol, and the radioactivity was then measured. […] See Feyen, J. H. M., et al., Journal of Chromatography 259 (1983), pp. 338-340.

[4] = test system: mouse ear edema induced by topical application of arachidonic acid; experiment: Arachidonic Acid-Induced Ear Edema (AAEE); format: in vivo, Female Swiss Webster mice
Description: Arachidonic Acid-Induced Ear Edema (AAEE)
The purpose of this assay was to determine the ability of a topically-applied compound to prevent mouse ear edema induced by topical application of arachidonic acid. Female Swiss Webster mice topically received vehicle or test compound (1.0 mg/ear) on both ears (10 μl on outer and inner ears). After 30 minutes, the right ear of all groups received arachidonic acid (4 mg/ear) and the left ear received vehicle alone. After an additional 1 hour, the mice were sacrificed and an ear punch (4 mm) was taken from each ear. The difference in right and left ear punch weights for each animal was determined to assess activity. […] See Young, J. M. et al., J. Invest. Dermatol., 80, (1983), pp 48-52.

T1 sequence (P00592 23-146): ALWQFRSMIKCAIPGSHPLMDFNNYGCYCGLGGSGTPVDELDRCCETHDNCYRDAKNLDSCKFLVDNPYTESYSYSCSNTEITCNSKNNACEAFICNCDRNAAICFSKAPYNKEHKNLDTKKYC

| SMILES | TPAEE [2] [%] | inhibition at 10000 µM [3] [%] | further results |
| --- | --- | --- | --- |
| C[C@]12CCC(=O)C=C1CC[C@@H]1[C@@H]2[C@@H](O)C[C@@]2(C)[C@H]1CC[C@]2(O)C(=O)CO [hydrocortisone, reference compound] | – | – | ED50 (PIPE standard) ([1]; standard, rat paw edema): 0.46 M; ED50 (TPAEE standard) ([2]; standard, topical): 47 μg/ear |
| COc1ccc(Oc2c[n+]([O-])ccc2[N+](=O)[O-])cc1 [3-(4-Methoxyphenoxy)-4-nitropyridine-1-oxide] | -43 | – | – |
| Nc1cnccc1Oc1ccccc1 [4-phenoxy-3-pyridinamine, 4-Phenoxy-3-pyridinamine] | -34 | – | – |
| Cl.Nc1ccncc1Oc1ccccc1 [3-phenoxy-4-pyridinamine hydrochloride, 3-Phenoxy-4-pyridinamine hydrochloride] | -60 | 95 | PIPE (difference in edema vs. control) ([1]; 0.1 M test compound injected with PLA2 (3 units/paw), subplantar, rat hindpaw, two hours post administration): -79%; AAEE ([4]; 1 mg/ear topical, arachidonic acid 4 mg/ear, 1 hour): -31% |
| CCOC(=O)Cc1ccc(Oc2cnccc2N)cc1.O=C(O)C(=O)O [4-(4-Amino-3-pyridinyloxy)benzeneacetic acid ethyl ester oxalate] | -39 | – | – |
| COC(=O)c1ccccc1Oc1cnccc1N [2-(4-Amino-3-pyridinyloxy)benzoic acid methyl ester hydrochloride] | – | 38 | – |
| Nc1ccncc1Oc1ccccc1CO [2-(4-Amino-3-pyridinyloxy)benzenemethanol oxalate] | – | 82 | – |
| COc1ccc2c(c1)c(CC(=O)O)c(C)n2C(=O)c1ccc(Cl)cc1 [indomethacin, reference compound] | – | – | ED50 (AAEE standard) ([4]; standard, topical): 1.5 mg/ear |
| CC(=O)Nc1ccncc1Oc1ccccc1 [N-(3-Phenoxy-4-pyridinyl)acetamide hydrochloride] | – | 73 | – |
